The values below come from US10285865B2, “Drug-releasing device usable in mucosal body cavities” (Princeton Trade & Technololgy, Inc., priority 2014, dated 2019).

Format in all cases: cell-based
Assay [1] relates to Staphylococcus aureus LUX. The assay is described as follows: microbe, parasite or virus in culture. An excerpt: (§1) In an embodiment of the invention, the two forms of Ciprofloxacin can be combined in a single implant so as to achieve a desired the rate of delivery, the solubility limit of the drug in middle ear exudate or release of the drug. […]. The Minimum Inhibitory Concentration is the smallest concentration of a drug in water that will inhibit growth of a particular bacteria in solution.
(§2) The quantity Minimum Inhibitory Concentration (MIC) is the smallest concentration of a drug in water that will inhibit growth of a particular organism. It may be desirable for the administered concentration of a drug to be some multiple of this quantity. MIC for Ciprofloxacin is given here for several organisms typical of otitis media. For Pseudomonas aeruginosa, the MIC is 0.09 micrograms per milliliter. […] For Haemophilus influenza, the MIC is 0.06 micrograms per milliliter.

Assay [2] deals with Staphylococcus aureus GFP. Description: microbe, parasite or virus in culture.
Text: as §1, §2

In assay [3] the test system is Pseudomonas aeruginosa. The assay is described as follows: Minimum Inhibitory Concentration (MIC) in water.
Text: as §1, §2

Assay [4] concerns Haemophilus influenza. Description: Minimum Inhibitory Concentration (MIC) in water.
Text: as §1, §2

Assay [5] relates to Streptococcus pneumonia. The assay is described as follows: Minimum Inhibitory Concentration (MIC) in water. The settings on record: Streptococcus pneumoniae.
Text: as §1, §2

≈ marks a conversion by molar mass, not a printed value.

As to `O=C(O)c1cn(C2CC2)c2cc(N3CCNCC3)c(F)cc2c1=O` [Ciprofloxacin], the MIC was 0.28 µg/mL (≈ 0.845 µM) in assay [1]; 0.28 µg/mL (≈ 0.845 µM) in assay [2]; 0.09 µg/mL (≈ 0.272 µM) in assay [3]; 0.06 µg/mL (≈ 0.181 µM) in assay [4]; 0.75 µg/mL (≈ 2.26 µM) in assay [5].
